Results published in ChEMBL document CHEMBL4342421, “Current scenario of tetrazole hybrids for antibacterial activity” (Eur J Med Chem, 2019).
Converted amounts (≈) assume the structure as drawn.

Tests used:
Staphylococcus aureus [1] = assay: Antimicrobial activity against Staphylococcus aureus; format: functional
Bacillus cereus [2] = assay: Antimicrobial activity against Bacillus cereus assessed as zone of inhibition at 250 ug/ml; format: functional; conditions: read-out: IZ
Pseudomonas aeruginosa [3] = assay: Antimicrobial activity against Pseudomonas aeruginosa assessed as zone of inhibition at 250 ug/ml; format: functional; conditions: read-out: IZ
Aspergillus niger [4] = assay: Antifungal activity against Aspergillus niger; format: functional
Candida albicans [5] = assay: Antifungal activity against Candida albicans assessed as zone of inhibition at 250 ug/ml; format: functional; conditions: read-out: IZ
Escherichia coli [6] = assay: Antimicrobial activity against Escherichia coli assessed as zone of inhibition at 250 ug/ml after 24 hrs by disk diffusion method; format: functional; conditions: read-out: IZ
Escherichia coli [7] = assay: Antimicrobial activity against Escherichia coli assessed as zone of inhibition at 250 ug/ml; format: functional; conditions: read-out: IZ
Bacillus cereus [8] = assay: Antimicrobial activity against Bacillus cereus; format: functional
Staphylococcus aureus [9] = assay: Antimicrobial activity against Staphylococcus aureus assessed as zone of inhibition at 250 ug/ml; format: functional; conditions: read-out: IZ
Escherichia coli [10] = assay: Antimicrobial activity against Escherichia coli; format: functional
Candida albicans [11] = assay: Antifungal activity against Candida albicans; format: functional
Pseudomonas aeruginosa [12] = assay: Antimicrobial activity against Pseudomonas aeruginosa; format: functional
Aspergillus niger [13] = assay: Antifungal activity against Aspergillus niger assessed as zone of inhibition at 250 ug/ml; format: functional; conditions: read-out: IZ
Escherichia coli [14] = assay: Antimicrobial activity against Escherichia coli assessed as zone of inhibition at 5 mg/ml; format: functional; conditions: read-out: IZ
Staphylococcus aureus [15] = assay: Antimicrobial activity against Staphylococcus aureus assessed as zone of inhibition at 5 mg/ml; format: functional; conditions: read-out: IZ
Klebsiella pneumoniae = assay: Antimicrobial activity against Klebsiella pneumoniae assessed as zone of inhibition at 5 mg/ml; format: functional; conditions: read-out: IZ
Pseudomonas aeruginosa [16] = assay: Antimicrobial activity against Pseudomonas aeruginosa assessed as zone of inhibition at 5 mg/ml; format: functional; conditions: read-out: IZ
Streptococcus pneumoniae = assay: Antimicrobial activity against Streptococcus pneumoniae; format: functional
Proteus vulgaris = assay: Antimicrobial activity against Proteus vulgaris; format: functional
Bacillus subtilis [17] = assay: Antimicrobial activity against Bacillus subtilis; format: functional
Salmonella typhimurium = assay: Antimicrobial activity against Salmonella typhimurium; format: functional, Salmonella enterica subsp. enterica serovar Typhimurium; conditions: Salmonella enterica
Proteus mirabilis = assay: Antimicrobial activity against Proteus mirabilis; format: functional
Bacillus thuringiensis = assay: Antimicrobial activity against Bacillus thuringiensis; format: functional
Prescottella equi = assay: Antimicrobial activity against Rhodococcus equi; format: functional; conditions: Rhodococcus (subgen. Prescottella) equi
[18] = Antifungal activity against Rhodotorula ingeniosa assessed as zone of inhibition at 10 ug/ml; format: functional; conditions: Sampaiozyma ingeniosa; read-out: IZ
Aspergillus niger [19] = assay: Antifungal activity against Aspergillus niger assessed as zone of inhibition at 10 ug/ml; format: functional; conditions: read-out: IZ
Candida albicans [20] = assay: Antifungal activity against Candida albicans assessed as zone of inhibition at 10 ug/ml; format: functional; conditions: read-out: IZ
Pseudomonas = assay: Antimicrobial activity against Pseudomonas assessed as zone of inhibition at 10 ug/ml; format: functional; conditions: read-out: IZ
Escherichia coli [21] = assay: Antimicrobial activity against Escherichia coli assessed as zone of inhibition at 10 ug/ml; format: functional; conditions: read-out: IZ
Bacillus subtilis [22] = assay: Antimicrobial activity against Bacillus subtilis assessed as zone of inhibition at 10 ug/ml; format: functional; conditions: read-out: IZ
Streptomyces = assay: Antimicrobial activity against Streptomyces assessed as zone of inhibition at 10 ug/ml; format: functional; conditions: read-out: IZ
Lactococcus lactis = assay: Antimicrobial activity against Streptococcus lactis assessed as zone of inhibition at 10 ug/ml; format: functional; conditions: read-out: IZ
Penicillium = assay: Antifungal activity against Penicillium assessed as zone of inhibition at 10 ug/ml; format: functional; conditions: read-out: IZ
Fusarium oxysporum = assay: Antifungal activity against Fusarium oxysporum; format: functional
Aspergillus flavus = assay: Antifungal activity against Aspergillus flavus; format: functional

In the case of `Clc1ccc(-c2nnnn2-c2nc3ccccc3s2)cc1`, the MIC (Staphylococcus aureus [1]) is reported as 50 to 100 µg/mL (≈ 159 to 319 µM), the zone of inhibition at 250 µg/mL (Bacillus cereus [2]) is reported as 16 to 26 mm and the zone of inhibition at 250 µg/mL (Pseudomonas aeruginosa [3]) is reported as 16 to 26 mm. For the same molecule, the MIC (Aspergillus niger [4]) was 50 to 100 µg/mL (≈ 159 to 319 µM), the zone of inhibition at 250 µg/mL (Candida albicans [5]) was 16 to 26 mm and the zone of inhibition at 250 µg/mL (Escherichia coli [6]) was 18 to 26 mm. It also gave a zone of inhibition at 250 µg/mL (Escherichia coli [7]) of 16 to 26 mm, an MIC (Bacillus cereus [8]) of 50 to 100 µg/mL (≈ 159 to 319 µM) and a zone of inhibition at 250 µg/mL (Staphylococcus aureus [9]) of 16 to 26 mm. It also gave an MIC (Escherichia coli [10]) of 50 to 100 µg/mL (≈ 159 to 319 µM), an MIC (Candida albicans [11]) of 50 to 100 µg/mL (≈ 159 to 319 µM) and an MIC (Pseudomonas aeruginosa [12]) of 50 to 100 µg/mL (≈ 159 to 319 µM). The zone of inhibition at 250 µg/mL (Aspergillus niger [13]) was 16 to 26 mm.
`Cc1ccc2cc(Cn3cc(CSc4nnnn4-c4ccccc4)nn3)c(C)nc2c1` showed a zone of inhibition at 5000 µg/mL (Escherichia coli [14]) of 11 to 19 mm, a zone of inhibition at 5000 µg/mL (Staphylococcus aureus [15]) of 11 to 19 mm and a zone of inhibition at 5000 µg/mL (Klebsiella pneumoniae) of 11 to 19 mm. The zone of inhibition at 5000 µg/mL (Pseudomonas aeruginosa [16]) was 11 to 19 mm.
In the case of `c1ccc(N2CCN(c3ncnc4c3Sc3nnnn3N4)CC2)cc1`, the MIC (Streptococcus pneumoniae) is reported as 51 to 410 µg/mL (≈ 144 to 1160 µM), the MIC (Proteus vulgaris) is reported as 51 to 410 µg/mL (≈ 144 to 1160 µM) and the MIC (Bacillus subtilis [17]) is reported as 51 to 410 µg/mL (≈ 144 to 1160 µM). It also gave an MIC (Salmonella typhimurium) of 51 to 410 µg/mL (≈ 144 to 1160 µM), an MIC (Proteus mirabilis) of 51 to 410 µg/mL (≈ 144 to 1160 µM) and an MIC (Bacillus thuringiensis) of 51 to 410 µg/mL (≈ 144 to 1160 µM). The MIC (Prescottella equi) was 51 to 410 µg/mL (≈ 144 to 1160 µM).
Work on `OC[C@H]1O[C@H](n2nnnc2Cn2nnc3ccccc32)[C@H](O)[C@@H](O)[C@@H]1O` yielded a zone of inhibition at 10 µg/mL [18] of 11 to 15 mm, a zone of inhibition at 10 µg/mL (Aspergillus niger [19]) of 11 to 15 mm and a zone of inhibition at 10 µg/mL (Candida albicans [20]) of 11 to 15 mm. The zone of inhibition at 10 µg/mL (Pseudomonas) was 11 to 15 mm, the zone of inhibition at 10 µg/mL (Escherichia coli [21]) was 11 to 15 mm and the zone of inhibition at 10 µg/mL (Bacillus subtilis [22]) was 11 to 15 mm. For the same molecule, the zone of inhibition at 10 µg/mL (Streptomyces) was 11 to 15 mm, the zone of inhibition at 10 µg/mL (Lactococcus lactis) was 11 to 15 mm and the zone of inhibition at 10 µg/mL (Penicillium) was 11 to 15 mm.
Work on `c1ccc2c(c1)nnn2Cc1nnn[nH]1` yielded a zone of inhibition at 10 µg/mL [18] of 11 to 16 mm, a zone of inhibition at 10 µg/mL (Aspergillus niger [19]) of 11 to 16 mm and a zone of inhibition at 10 µg/mL (Candida albicans [20]) of 11 to 16 mm. It also gave a zone of inhibition at 10 µg/mL (Pseudomonas) of 11 to 16 mm, a zone of inhibition at 10 µg/mL (Escherichia coli [21]) of 11 to 16 mm and a zone of inhibition at 10 µg/mL (Bacillus subtilis [22]) of 11 to 16 mm. For the same molecule, the zone of inhibition at 10 µg/mL (Streptomyces) was 11 to 16 mm, the zone of inhibition at 10 µg/mL (Lactococcus lactis) was 11 to 16 mm and the zone of inhibition at 10 µg/mL (Penicillium) was 11 to 16 mm.
For `Clc1ccc(-n2cc(-c3nnn[nH]3)nn2)cc1`, the MIC (Aspergillus niger [4]) was 100 µg/mL (≈ 404 µM), the MIC (Fusarium oxysporum) was 100 µg/mL (≈ 404 µM) and the MIC (Aspergillus flavus) was 100 µg/mL (≈ 404 µM).
